Columns and labels:
uterus fibroids = settings: several clinical studies; cited from earlier work
[1] = cited from earlier work
[2] = target: T1, human progesterone receptor A (Homo sapiens, UniProt P06401); assay: Progesterone receptor antagonistic effect in stably transfected SK-N-MC cells, MTV-LUC reporter (PR-A); type: cell-based; settings: antagonism of 0.1 nmol/l promegestone, luciferase reporter, 24 hours
T1 construct: expressed in transfected cells; host or cells: SK-N-MC human neuroblastoma cells, stably transfected with pRChPR-A-neo and pMMTV-LUC
T1 sequence (P06401 1-769 isoform P06401-2): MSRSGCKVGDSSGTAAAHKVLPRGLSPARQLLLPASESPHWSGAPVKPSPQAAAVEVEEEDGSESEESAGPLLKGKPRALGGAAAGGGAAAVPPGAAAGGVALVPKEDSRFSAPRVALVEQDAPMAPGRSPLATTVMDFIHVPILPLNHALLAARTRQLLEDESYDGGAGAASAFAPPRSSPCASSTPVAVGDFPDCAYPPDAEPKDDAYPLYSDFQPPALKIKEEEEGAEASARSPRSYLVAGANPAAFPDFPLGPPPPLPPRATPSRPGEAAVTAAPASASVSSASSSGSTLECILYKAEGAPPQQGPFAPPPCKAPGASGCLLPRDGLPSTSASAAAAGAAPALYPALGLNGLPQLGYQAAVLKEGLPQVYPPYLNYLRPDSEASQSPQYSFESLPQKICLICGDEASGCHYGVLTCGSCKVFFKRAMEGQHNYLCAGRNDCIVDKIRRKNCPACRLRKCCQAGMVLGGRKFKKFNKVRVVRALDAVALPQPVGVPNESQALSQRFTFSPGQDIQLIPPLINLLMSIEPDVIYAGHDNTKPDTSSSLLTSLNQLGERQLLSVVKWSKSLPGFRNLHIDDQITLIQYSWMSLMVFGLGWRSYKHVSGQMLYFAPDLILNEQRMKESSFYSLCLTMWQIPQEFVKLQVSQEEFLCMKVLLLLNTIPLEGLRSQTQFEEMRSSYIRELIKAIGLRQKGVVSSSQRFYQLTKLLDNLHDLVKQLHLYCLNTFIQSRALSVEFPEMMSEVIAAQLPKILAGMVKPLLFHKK
In short: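 Stably transfected SK-N-MC cells with PR-A or PR-B and MMTV-LUC reporter, treated 24 h with 0.1 nmol/l promegestone plus test compound at 0.01 nmol/l–1 μmol/l. Luciferase in cell lysates read as RLU; values given as percentage efficacy and IC50.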

[3] = target: T2, human progesterone receptor B (Homo sapiens, UniProt P06401); assay: Progesterone receptor antagonistic effect in stably transfected SK-N-MC cells, MTV-LUC reporter (PR-B); type: cell-based; settings: antagonism of 0.1 nmol/l promegestone, luciferase reporter, 24 hours
T2 construct: expressed in transfected cells; host or cells: SK-N-MC human neuroblastoma cells, stably transfected with pRChPR-B-neo and pMMTV-LUC
T2 sequence (P06401 1-933): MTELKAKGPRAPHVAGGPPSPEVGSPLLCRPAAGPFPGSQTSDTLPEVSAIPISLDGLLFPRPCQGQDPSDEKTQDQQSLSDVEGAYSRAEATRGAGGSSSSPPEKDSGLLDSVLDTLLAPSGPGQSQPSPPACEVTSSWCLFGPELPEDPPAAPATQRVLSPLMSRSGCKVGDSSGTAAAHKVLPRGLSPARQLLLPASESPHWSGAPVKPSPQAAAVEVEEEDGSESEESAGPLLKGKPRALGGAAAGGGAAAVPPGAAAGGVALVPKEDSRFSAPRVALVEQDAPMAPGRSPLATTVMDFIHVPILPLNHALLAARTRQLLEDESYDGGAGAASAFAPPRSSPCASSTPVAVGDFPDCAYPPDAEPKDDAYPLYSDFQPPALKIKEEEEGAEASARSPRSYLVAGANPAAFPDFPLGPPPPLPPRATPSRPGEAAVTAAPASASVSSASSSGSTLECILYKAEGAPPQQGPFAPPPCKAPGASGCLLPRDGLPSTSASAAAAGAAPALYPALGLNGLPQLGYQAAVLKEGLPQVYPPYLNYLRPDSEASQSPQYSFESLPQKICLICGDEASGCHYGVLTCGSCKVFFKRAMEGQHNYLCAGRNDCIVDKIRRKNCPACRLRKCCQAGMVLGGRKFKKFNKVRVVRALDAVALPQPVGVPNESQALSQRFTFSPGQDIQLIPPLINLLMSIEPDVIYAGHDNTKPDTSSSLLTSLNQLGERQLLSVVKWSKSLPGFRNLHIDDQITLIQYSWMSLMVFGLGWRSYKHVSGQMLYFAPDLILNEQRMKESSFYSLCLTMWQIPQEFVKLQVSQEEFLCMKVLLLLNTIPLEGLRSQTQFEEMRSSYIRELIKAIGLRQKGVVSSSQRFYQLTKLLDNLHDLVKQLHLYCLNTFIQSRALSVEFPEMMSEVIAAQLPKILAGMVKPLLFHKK
Method: Progesterone Receptor Antagonistic Effect in Stable Transfectants of Human Neuroblastoma Cells (SK-N-MC cells) with the Human Progesterone A or Progesterone B Receptor and a MTV-LUC Reporter Construct
SK-N-MC cells (human neuroblastoma cells), which have been stably transfected with plasmids which express the human progesterone receptor B (pRChPR-B-neo) or the human progesterone receptor A (pRChPR-A-neo) and a reporter construct (pMMTV-LUC), were incubated for 24 hours either in the absence (negative control) or in the presence of increasing amounts of the particular test compound (0.01 nmol/l, 0.1 nmol/l, 1 nmol/l, 10 nmol/l, 100 nmol/l and 1 μmol/l) in order to determine the agonistic efficacy. As a positive control of the reporter gene induction, the cells were treated with the synthetic gestagen promegestone (0.01 nmol/l, 0.1 nmol/l, 1 nmol/l, 10 nmol/l, 100 nmol/l and 1 μmol/l). To determine the antagonistic activity, the cells were treated with 0.1 nmol/l of promegestone and additionally with increasing amounts of the particular test compound (0.01 nmol/l, 0.1 nmol/l, 1 nmol/l, 10 nmol/l, 100 nmol/l and 1 μmol/l). The activity of the reporter gene LUC (LUC=luciferase) was determined in the cell lysates and measured as RLU (relative light units). All measurement values are given as percentage efficacy and as EC50 or IC50 concentrations.

pregnant rats = assay: Abortive test on female rats (termination of early pregnancy); type: in vivo, rat; settings: for Abortion rate: d5-d7 p.c., autopsy d9 p.c.
Method: The antagonistic effect of the compounds according to the invention was tested on pregnant rats (6 rats per group) on day (d) 5 to 7 post coitum (p.c.) under conventional keeping and feeding conditions.
After successful pairing, the pregnant animals (presence of sperm in the vaginal smear on day 1 of the pregnancy=d1 p.c.) were randomized and divided into the treatment group and the control group. The animals were then given, subcutaneously or orally, in each case 0.15; 0.5; 1.5 or 5 mg/kg of the test compound or […] of vehicle (benzyl benzoate/ricinus oil: 1+4 [v/v]) daily from day 5 to day 7 (d5-d7 p.c.).
The autopsy was carried out on day 9 (d9 p.c.). As the parameter of the progesterone receptor antagonistic effect, the uterus was investigated with regard to the presence of nidation sites. Here, the complete lack of nidation sites, but also the presence of pathological, haemmorhagic or otherwise abnormal nidation sites, on day 9 (d9 p.c.) was evaluated as an abortion.

Q: With `COCC(=O)[C@@]1(OC(C)=O)CC[C@H]2[C@@H]3CCC4=CC(=O)CCC4=C3[C@@H](c3ccc(N(C)C)cc3)C[C@@]21C` [proellex] as the compound, how does the “Effect on uterus fibroids” value (uterus fibroids) read?
A: Its value is “significant shrinkage of uterus fibroids”.

Q: And the “Symptoms associated with uterus fibroids” value (uterus fibroids)?
A: Its value is “significant reduction in the symptoms”.

Q: And the Liver enzymes ([1]; relatively high dosages)?
A: The Liver enzymes was “induction of liver enzymes”.

Q: For `CC#C[C@]1(O)CC[C@H]2[C@@H]3CCC4=CC(=O)CCC4=C3[C@@H](c3ccc(N(C)C)cc3)C[C@@]21C` [mifepristone], which “Effect on uterus fibroids” value (uterus fibroids) is on record?
A: Its value is “significant shrinkage of uterus fibroids”.

Q: What about the “Symptoms associated with uterus fibroids” value (uterus fibroids) of the same compound?
A: Its value is “significant reduction in the symptoms”.

Q: Which results are given for `CC(=O)N1CCN(Cc2ccc([C@H]3C[C@@]4(C)C(CC[C@@]4(O)C(F)(F)C(F)(F)F)C4CCC5=CC(=O)CCC5=C43)cc2)CC1` (stereo partly drawn) [Example 11, (11β,17β)-11-{4-[(4-Acetylpiperazin-1-yl)methyl]phenyl}-17-hydroxy-17-(pentafluoroethyl)estra-4,9-dien-3-one]?
A: IC50 [2]: 0.095 nM; IC50 [3]: 0.095 nM; Abortion rate (pregnant rats; daily dose 0.5 mg/kg p.o.): 100%; Abortion rate (pregnant rats; daily dose 1.5 mg/kg p.o.): 100%; Abortion rate (pregnant rats; daily dose 5.0 mg/kg p.o.): 100%; In vivo properties in preclinical tests (pregnant rats; preclinical tests, not further specified): exceptional in vivo properties

Q: For `CN(C)c1ccc([C@H]2C[C@]3(C)[C@@H](CC[C@]3(O)CCCO)[C@@H]3CCC4=CC(=O)CCC4=C32)cc1` [Onapristone, onapristone], which Liver function tests ([1]; clinical studies, some patients) is on record?
A: Its Liver function tests is “abnormalities in liver function tests were observed”.

Reference: patent US9085603B2, “Progesterone receptor antagonists” (Bayer Intellectual Property GmbH, priority 2010, dated 2015)
